The results in this text go back to ChEMBL document CHEMBL1142670, “Synthesis, nicotinic acetylcholine receptor binding, and antinociceptive properties of 3'-substituted deschloroepibatidine analogues. Novel nicotinic antagonists” (J Med Chem, 2005).

What is called Ki is the equilibrium dissociation constant of an inhibitor or competing ligand from its target. The low end stands for a stronger hold on the target, the high end for a looser hold on the target. For orientation: ED50 means the dose that gives a 50% effect, or the effect in half of the subjects.

The structures appear in SMILES notation. Bounds are passed on as bounds.

The target in experiment [1] is Neuronal acetylcholine receptor; alpha4/beta2 (Rattus norvegicus, UniProt P09483+P12390). As to the kind of experiment: Inhibition of [3H]epibatidine binding to Nicotinic acetylcholine receptor alpha4-beta2 in rat cerebral cortex. Type of experiment: tissue-based.
Neuronal acetylcholine receptor; alpha4/beta2, sequence (P09483 whole entry): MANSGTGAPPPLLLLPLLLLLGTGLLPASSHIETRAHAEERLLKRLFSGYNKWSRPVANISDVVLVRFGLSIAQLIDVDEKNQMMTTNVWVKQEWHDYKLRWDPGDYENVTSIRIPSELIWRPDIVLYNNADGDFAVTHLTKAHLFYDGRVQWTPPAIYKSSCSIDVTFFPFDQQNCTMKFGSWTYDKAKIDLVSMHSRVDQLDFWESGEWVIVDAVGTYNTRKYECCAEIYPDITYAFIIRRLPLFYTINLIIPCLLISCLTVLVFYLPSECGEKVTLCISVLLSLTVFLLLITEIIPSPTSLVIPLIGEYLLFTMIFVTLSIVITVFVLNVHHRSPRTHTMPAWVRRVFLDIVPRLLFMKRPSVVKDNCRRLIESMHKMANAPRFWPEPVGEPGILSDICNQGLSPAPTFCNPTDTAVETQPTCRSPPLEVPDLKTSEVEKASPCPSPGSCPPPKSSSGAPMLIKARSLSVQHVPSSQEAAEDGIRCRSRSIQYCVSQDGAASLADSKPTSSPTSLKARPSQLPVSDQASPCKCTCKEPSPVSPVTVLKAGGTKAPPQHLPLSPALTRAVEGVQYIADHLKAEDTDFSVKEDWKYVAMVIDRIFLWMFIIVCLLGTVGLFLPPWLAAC
Neuronal acetylcholine receptor; alpha4/beta2, sequence (P12390 whole entry): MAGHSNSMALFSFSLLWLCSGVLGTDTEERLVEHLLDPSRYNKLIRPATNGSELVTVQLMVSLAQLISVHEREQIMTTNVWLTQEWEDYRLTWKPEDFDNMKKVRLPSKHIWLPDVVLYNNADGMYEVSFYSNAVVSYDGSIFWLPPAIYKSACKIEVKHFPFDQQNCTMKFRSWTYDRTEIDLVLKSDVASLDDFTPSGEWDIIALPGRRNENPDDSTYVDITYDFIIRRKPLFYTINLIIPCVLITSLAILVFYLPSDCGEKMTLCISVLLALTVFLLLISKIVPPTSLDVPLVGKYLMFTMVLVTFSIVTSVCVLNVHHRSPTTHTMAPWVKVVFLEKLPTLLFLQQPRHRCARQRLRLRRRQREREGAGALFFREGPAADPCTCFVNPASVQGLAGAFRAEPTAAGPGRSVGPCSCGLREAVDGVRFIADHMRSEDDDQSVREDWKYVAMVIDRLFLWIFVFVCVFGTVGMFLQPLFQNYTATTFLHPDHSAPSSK
For experiment [2], the system named is Mus musculus. As to the kind of experiment: Anesthetic dose in hotplate test in mouse. Type of experiment: functional.
For experiment [3], the species on record is Mus musculus. The experiment can be described thus: Effective dose to induce spontaneous activity in mouse was determined. It counts as functional.
For experiment [4], the species on record is Mus musculus. As to the kind of experiment: Effective dose to induce hypothermia in mouse was determined. It counts as functional.
For experiment [5], the target named is Neuronal acetylcholine receptor subunit alpha-7 (Rattus norvegicus, UniProt Q05941). The experiment can be described thus: Inhibition of [125I]-iodo-MLA binding to Nicotinic acetylcholine receptor alpha-7 in rat cerebral cortex. Type of experiment: tissue-based.
Neuronal acetylcholine receptor subunit alpha-7, sequence (Q05941 whole entry): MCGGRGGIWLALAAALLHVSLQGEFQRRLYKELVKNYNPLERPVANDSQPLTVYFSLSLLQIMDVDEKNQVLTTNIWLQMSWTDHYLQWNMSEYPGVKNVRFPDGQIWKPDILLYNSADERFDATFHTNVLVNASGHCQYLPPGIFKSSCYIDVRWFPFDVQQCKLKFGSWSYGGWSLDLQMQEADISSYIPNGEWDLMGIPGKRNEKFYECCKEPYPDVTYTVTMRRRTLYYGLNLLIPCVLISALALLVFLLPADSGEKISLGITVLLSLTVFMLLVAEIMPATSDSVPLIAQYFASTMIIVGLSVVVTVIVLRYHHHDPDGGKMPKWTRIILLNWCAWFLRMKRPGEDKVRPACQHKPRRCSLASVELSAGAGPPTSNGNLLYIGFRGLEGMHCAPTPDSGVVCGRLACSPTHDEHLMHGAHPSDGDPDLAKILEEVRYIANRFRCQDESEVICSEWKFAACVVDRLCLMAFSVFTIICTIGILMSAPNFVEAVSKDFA
Experiment [6] relates to Mus musculus. As to the kind of experiment: Effect on body temperature of mouse was determined at 0.01 ug/kg. Type of experiment: functional.
In experiment [7] the test system is Mus musculus. The experiment can be described thus: Anesthetic dose in mouse in tail-flick test. Type of experiment: functional. In general terms: In hot-plate and tail-flick tests a longer latency is read as antinociception.
The species entered for experiment [8] is Mus musculus. The experiment can be described thus: Effective dose to induce antinociception in mouse determined in tail-flick test. Type of experiment: functional.
Experiment [9] is filed under the species Mus musculus. As to the kind of experiment: Effective dose to induce antinociception in mouse determined in hotplate test. It counts as functional.
The test system of experiment [10] is Mus musculus. As to the kind of experiment: Effect on body temperature of mouse was determined at 0.02 ug/kg. It counts as functional.
The subject of experiment [11] is Mus musculus. As to the kind of experiment: Anesthetic effect in hotplate test in mouse at 0.1 ug/kg. It counts as functional.
Experiment [12] concerns Mus musculus. As to the kind of experiment: Effect on body temperature of mouse was determined at 10 ug/kg. Type of experiment: functional.
The subject of experiment [13] is Mus musculus. The experiment can be described thus: Anesthetic effect in hotplate test in mouse at 10 ug/kg. It counts as functional.
Experiment [14] has as its system Mus musculus. The experiment can be described thus: Anesthetic effect in mouse in hotplate test at 20 ug/kg. Type of experiment: functional.
A short description of experiment [15]: Effect on body temperature of mouse was measured in tail-flick test at the rate 500 ug/kg. Type of experiment: functional.
Experiment [16] relates to Mus musculus. As to the kind of experiment: Anesthetic effect in mouse in hotplate test at 10 ug/kg. It counts as functional.
The mark [17] stands for this setting: Mus musculus, Tail, read-out: ED50.

As to `Nc1cncc(C2CC3CCC2N3)c1` (centres undefined), the results for the Ki in experiment [1] and in experiment [5] were 0.097 nM and 732 nM, respectively. For the same molecule, the AD50 is 6.9 µg/kg with Mus musculus [2] and 1.6 µg/kg in the experiment on Mus musculus [7]. For the same molecule, the ED50 in the experiment listed under Mus musculus [3] (Mus musculus, read-out: ED50) was determined as 900 µg/kg; in the experiment filed under Mus musculus [4] (Mus musculus, read-out: ED50), 2700 µg/kg; in the experiment filed under Mus musculus [8] (setting [17]), 4700 µg/kg; in the experiment filed under Mus musculus [9] (Mus musculus, read-out: ED50) it was 3100 µg/kg. Moreover, the Effect in the experiment with Mus musculus [6] is on record as 0%.

Consider `Clc1cncc(C2CC3CCC2N3)c1` (centres undefined), for which the Ki in experiment [1] was found to be 0.055 nM; in [5], 50.6 nM. Further, the figures for the AD50 with Mus musculus [2] and in the experiment with Mus musculus [7] were 15 µg/kg and 0.2 µg/kg, respectively. Besides, the 50% effective dose (ED50) in the experiment filed under Mus musculus [3] (Mus musculus, read-out: ED50) came to 40 µg/kg; in the experiment listed under Mus musculus [4] (Mus musculus, read-out: ED50) it was 150 µg/kg; in the experiment listed under Mus musculus [8] (setting [17]) it was 300 µg/kg; in the experiment filed under Mus musculus [9] (Mus musculus, read-out: ED50) it was 230 µg/kg. For the same molecule, the Effect in the experiment on Mus musculus [10] was determined as 0%.

`Brc1cncc(C2CC3CCC2N3)c1` (centres undefined): the values for the Ki in experiment [1] and in [5] were 0.05 nM and 164 nM, respectively. Further, the values for the AD50 in the experiment with Mus musculus [2] and in the experiment on Mus musculus [7] were 0.78 µg/kg and 15 µg/kg, respectively. For the same molecule, the ED50 in the experiment listed under Mus musculus [3] (Mus musculus, read-out: ED50) came out at 100 µg/kg; in the experiment filed under Mus musculus [4] (Mus musculus, read-out: ED50) it was 70 µg/kg; in the experiment listed under Mus musculus [8] (setting [17]) it was 1200 µg/kg; in the experiment listed under Mus musculus [9] (Mus musculus, read-out: ED50) it was 570 µg/kg. The molecule further showed an Effect in the experiment on Mus musculus [6] of 0%.

Consider `C#Cc1cncc(C2CC3CCC2N3)c1` (centres undefined), for which the Ki was 0.02 nM in experiment [1] and 5 nM in [5]. Also, the ED50 in the experiment filed under Mus musculus [3] (Mus musculus, read-out: ED50) was 1 µg/kg; in the experiment filed under Mus musculus [4] (Mus musculus, read-out: ED50) it was 50 µg/kg; in the experiment filed under Mus musculus [8] (setting [17]) it was 1000 µg/kg; in the experiment filed under Mus musculus [9] (Mus musculus, read-out: ED50) it was 560 µg/kg. In addition, the Effect in the experiment on Mus musculus [6] was 0%. Moreover, the AD50 in the experiment on Mus musculus [7] was determined as 6 µg/kg. In addition, the Anesthetic effect in the experiment on Mus musculus [11] came out at 0%.

In the case of `C=Cc1cncc(C2CC3CCC2N3)c1` (centres undefined), the Ki in experiment [1] was 0.26 nM; in experiment [5], 344 nM. Besides, the AD50 was 100 µg/kg in the experiment on Mus musculus [2] and 2.4 µg/kg in the experiment with Mus musculus [7]. In addition, the ED50 turned out to be 200 µg/kg in the experiment filed under Mus musculus [3] (Mus musculus, read-out: ED50); 450 µg/kg in the experiment filed under Mus musculus [4] (Mus musculus, read-out: ED50); 1000 µg/kg in the experiment filed under Mus musculus [8] (setting [17]); 800 µg/kg in the experiment filed under Mus musculus [9] (Mus musculus, read-out: ED50). This molecule gave an Effect in the experiment with Mus musculus [6] of 0%.

Consider `CN1C2CCC1C(c1cncc(I)c1)C2` (centres undefined), for which the results for the Ki in experiment [1] and in experiment [5] were 0.029 nM and 33.2 nM, respectively. Moreover, the Effect with Mus musculus [12] amounted to 0%. The median effective dose (ED50) in the experiment listed under Mus musculus [3] (Mus musculus, read-out: ED50) stood at 30 µg/kg; in the experiment filed under Mus musculus [4] (Mus musculus, read-out: ED50), 340 µg/kg; in the experiment filed under Mus musculus [8] (setting [17]) it was 600 µg/kg; in the experiment filed under Mus musculus [9] (Mus musculus, read-out: ED50) it was 370 µg/kg. The same molecule came in with an Anesthetic effect in the experiment with Mus musculus [13] of 0%. The molecule also yielded an AD50 with Mus musculus [7] of 0.04 µg/kg.

On to `Fc1cncc(C2CC3CCC2N3)c1` (centres undefined), for which the ED50 in the experiment listed under Mus musculus [3] (Mus musculus, read-out: ED50) is 23 µg/kg; in the experiment listed under Mus musculus [4] (Mus musculus, read-out: ED50) it was 150 µg/kg; in the experiment listed under Mus musculus [8] (setting [17]) it was 80 µg/kg; in the experiment listed under Mus musculus [9] (Mus musculus, read-out: ED50), 50 µg/kg. For the same molecule, in the experiment with Mus musculus [10], the Effect was 0%. Moreover, the Anesthetic effect in the experiment with Mus musculus [14] is on record as 35%. This molecule had a Ki in experiment [5] above 1000 nM. For the same molecule, the AD50 in the experiment on Mus musculus [7] came to 0.07 µg/kg.

As for `Ic1cncc(C2CC3CCC2N3)c1` (single isomer, unassigned; (+)), the Increase in experiment [15] stood at 6%. Moreover, the Ki in experiment [1] is 0.045 nM; in experiment [5] it was 179 nM. The results for the ED50 in the experiment listed under Mus musculus [3], in the experiment filed under Mus musculus [8] and in the experiment listed under Mus musculus [9] were 91 µg/kg, 780 µg/kg and 60 µg/kg, respectively. In addition, the Anesthetic effect in the experiment on Mus musculus [14] was 15%. In addition, the AD50 in the experiment with Mus musculus [7] was 1.2 µg/kg.

On to `Ic1cncc(C2CC3CCC2N3)c1` (single isomer, unassigned; (-)), for which the Ki was determined as 0.048 nM in experiment [1] and 156 nM in experiment [5]. The Anesthetic effect with Mus musculus [16] amounted to 15%. Moreover, the ED50 in the experiment filed under Mus musculus [3] was 351 µg/kg; in the experiment listed under Mus musculus [4], 480 µg/kg; in the experiment filed under Mus musculus [8], 940 µg/kg; in the experiment filed under Mus musculus [9], 210 µg/kg. The AD50 in the experiment with Mus musculus [7] came to 0.11 µg/kg.

Regarding `Ic1cncc(C2CC3CCC2N3)c1` (stereo in doubt; 3d), the AD50 in the experiment with Mus musculus [2] came out at 0.24 µg/kg; with Mus musculus [7], 0.1 µg/kg. For the same molecule, the ED50 in the experiment listed under Mus musculus [3] is 130 µg/kg; in the experiment listed under Mus musculus [4] (Mus musculus, read-out: ED50), 780 µg/kg; in the experiment listed under Mus musculus [8] (setting [17]), 800 µg/kg; in the experiment listed under Mus musculus [9], 900 µg/kg. In experiment [5], this molecule had a Ki of 150 nM. The same molecule displayed an Effect with Mus musculus [6] of 0%.

In the case of `Clc1ccc(C2CC3CCC2N3)cn1` (centres undefined) [EPIBATIDINE], the ED50 in the experiment listed under Mus musculus [3] (Mus musculus, read-out: ED50) is 1 µg/kg; in the experiment filed under Mus musculus [4] (Mus musculus, read-out: ED50), 4 µg/kg; in the experiment listed under Mus musculus [8] (setting [17]), 6 µg/kg; in the experiment filed under Mus musculus [9] (Mus musculus, read-out: ED50), 4 µg/kg.

Take `CN1CCC[C@H]1c1cccnc1` [NICOTINE]: the median effective dose (ED50) is 500 µg/kg in the experiment listed under Mus musculus [3] (Mus musculus, read-out: ED50); 1000 µg/kg in the experiment listed under Mus musculus [4] (Mus musculus, read-out: ED50); 1300 µg/kg in the experiment listed under Mus musculus [8] (setting [17]); 650 µg/kg in the experiment filed under Mus musculus [9] (Mus musculus, read-out: ED50).
